Peptide text beside a SMILES is read from it.
Tests used:
[1] = molecular target: T1, HDAC2 (Homo sapiens, UniProt Q92769); assay: HDAC2 inhibition, full IC50 measurement (Reaction Biology; fluorogenic p53 peptide RHKK(Ac)AMC); assay type: biochemical
T1 construct: purchased Reaction Biology Corporation (assay run by the CRO)
Experimental: (§1) The assay was performed using 50 μM fluorogenic peptide from p53 residues 379-382 [RHKK(Ac)AMC] in a base reaction buffer of 50 mM Tris-HCl at pH 8.0, 137 mM NaCl, 2.7 mM KCl, 1 mM MgCl2, and freshly added 1 mg/ml BSA and 1% DMSO. Peptides were first dissolved in DMSO and then added to the reaction mixture with the enzyme using acoustic technique, enough to reach the desired concentration for that assay point. Peptide concentrations were calculated based on mass of lyophilized peptide and its molecular weight. The substrate was then added and incubated for 1 hour at 30 °C in a sealed container. After the incubation, developer was added to stop the reaction and develop color. Kinetic measurements were then performed for 20 min with Envision with 5 min intervals (Ex/Em = 360/460 nm). The endpoint after plateau was taken for IC50 measurement.
(§2) In cases where duplicate measures are used, average data is reported in the main text or Supplementary Tables.

[2] = molecular target: T2, HDAC6 (Homo sapiens, UniProt Q9UBN7); assay: HDAC6 inhibition, full IC50 measurement (Reaction Biology; fluorogenic p53 peptide RHKK(Ac)AMC); assay type: biochemical
T2 construct: purchased Reaction Biology Corporation (assay run by the CRO)
T2 sequence (Q9UBN7 1-1215): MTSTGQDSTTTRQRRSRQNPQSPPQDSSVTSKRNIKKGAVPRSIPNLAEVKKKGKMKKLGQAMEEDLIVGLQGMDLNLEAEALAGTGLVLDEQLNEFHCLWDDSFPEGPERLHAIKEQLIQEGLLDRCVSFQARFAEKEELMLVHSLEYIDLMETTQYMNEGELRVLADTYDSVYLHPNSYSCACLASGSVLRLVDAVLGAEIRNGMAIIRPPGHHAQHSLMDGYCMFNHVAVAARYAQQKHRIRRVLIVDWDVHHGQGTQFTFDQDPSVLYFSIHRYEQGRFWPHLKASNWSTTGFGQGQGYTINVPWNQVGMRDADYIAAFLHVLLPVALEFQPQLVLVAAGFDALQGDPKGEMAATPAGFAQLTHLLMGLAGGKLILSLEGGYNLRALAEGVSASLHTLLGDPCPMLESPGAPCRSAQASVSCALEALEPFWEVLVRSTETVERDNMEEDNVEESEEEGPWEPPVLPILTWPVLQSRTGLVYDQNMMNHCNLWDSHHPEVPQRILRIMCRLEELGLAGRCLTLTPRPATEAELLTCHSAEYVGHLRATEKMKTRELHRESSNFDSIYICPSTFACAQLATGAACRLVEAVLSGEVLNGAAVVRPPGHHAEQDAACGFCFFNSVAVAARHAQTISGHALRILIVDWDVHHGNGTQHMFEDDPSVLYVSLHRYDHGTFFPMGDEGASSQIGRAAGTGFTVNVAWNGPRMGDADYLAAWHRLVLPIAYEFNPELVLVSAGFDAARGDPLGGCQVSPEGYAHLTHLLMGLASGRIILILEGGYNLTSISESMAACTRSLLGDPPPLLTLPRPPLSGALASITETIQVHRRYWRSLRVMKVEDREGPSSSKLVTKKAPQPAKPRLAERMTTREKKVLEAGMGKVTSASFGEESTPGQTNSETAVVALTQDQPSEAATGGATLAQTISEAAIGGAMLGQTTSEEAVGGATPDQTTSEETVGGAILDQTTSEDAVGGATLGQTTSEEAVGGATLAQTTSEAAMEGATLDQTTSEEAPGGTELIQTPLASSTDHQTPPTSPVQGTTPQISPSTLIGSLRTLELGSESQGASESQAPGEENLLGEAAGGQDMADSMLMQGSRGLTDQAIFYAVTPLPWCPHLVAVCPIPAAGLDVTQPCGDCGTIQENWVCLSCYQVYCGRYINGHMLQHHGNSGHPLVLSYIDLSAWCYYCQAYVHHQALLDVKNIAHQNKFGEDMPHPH
Experimental: as §1, §2

T1 sequence (Q92769 whole entry): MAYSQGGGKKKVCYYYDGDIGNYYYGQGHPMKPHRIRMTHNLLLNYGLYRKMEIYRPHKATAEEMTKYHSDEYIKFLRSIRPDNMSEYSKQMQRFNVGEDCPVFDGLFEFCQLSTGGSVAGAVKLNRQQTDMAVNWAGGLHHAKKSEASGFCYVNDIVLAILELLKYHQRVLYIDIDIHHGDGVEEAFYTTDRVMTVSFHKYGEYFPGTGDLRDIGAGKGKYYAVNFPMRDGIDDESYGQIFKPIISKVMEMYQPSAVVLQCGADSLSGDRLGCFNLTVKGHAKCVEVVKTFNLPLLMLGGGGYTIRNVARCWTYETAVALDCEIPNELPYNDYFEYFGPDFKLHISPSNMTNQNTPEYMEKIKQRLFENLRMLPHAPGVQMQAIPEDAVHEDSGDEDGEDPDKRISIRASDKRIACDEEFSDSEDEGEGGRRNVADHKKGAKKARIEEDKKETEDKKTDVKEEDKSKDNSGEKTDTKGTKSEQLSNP

CCCC[C@H]1NC(=O)[C@H](Cc2ccccc2)NC(=O)[C@H](CCCCCS)NC(=O)[C@@H](CO)NC(=O)[C@H](CC(=O)O)NC(=O)[C@@H](CO)NC(=O)[C@@H](C)NC(=O)[C@H](CCCCN)NC1=O [des4.3.1.1, SHA-Phe-dNle-Lys-dAla-dSer-Asp-dSer] (HELM PEPTIDE1{D.[dS].[O=C([C@H](CCCCCS)N[*:1])[*:2]].F.[CCCC[C@@H](N[*:1])C(=O)[*:2]].K.[dA].[dS]}$PEPTIDE1,PEPTIDE1,1:R1-8:R2$$$V2.0)
HDAC2 activity raw data (signal) ([1]; Conc. 1.00E-05 M, t1): 1283086
HDAC2 activity raw data (signal) ([1]; Conc. 1.00E-05 M, t2): 1486401
HDAC2 activity raw data (signal) ([1]; Conc. 1.11E-06 M, t1): 1660902
HDAC2 activity raw data (signal) ([1]; Conc. 1.11E-06 M, t2): 1799195
HDAC2 activity raw data (signal) ([1]; Conc. 1.23E-07 M, t1): 1764651
HDAC2 activity raw data (signal) ([1]; Conc. 1.23E-07 M, t2): 1879798
HDAC2 activity raw data (signal) ([1]; Conc. 1.37E-08 M, t1): 1818162
HDAC2 activity raw data (signal) ([1]; Conc. 1.37E-08 M, t2): 1980324
HDAC2 activity raw data (signal) ([1]; Conc. 1.52E-09 M, t1): 1787655
HDAC2 activity raw data (signal) ([1]; Conc. 1.52E-09 M, t2): 1860263
HDAC2 activity raw data (signal) ([1]; Conc. 3.33E-06 M, t1): 1631295
HDAC2 activity raw data (signal) ([1]; Conc. 3.33E-06 M, t2): 1725891
HDAC2 activity raw data (signal) ([1]; Conc. 3.70E-07 M, t1): 1679365
HDAC2 activity raw data (signal) ([1]; Conc. 3.70E-07 M, t2): 1920676
HDAC2 activity raw data (signal) ([1]; Conc. 4.12E-08 M, t1): 1853084
HDAC2 activity raw data (signal) ([1]; Conc. 4.12E-08 M, t2): 2007168
HDAC2 activity raw data (signal) ([1]; Conc. 4.57E-09 M, t1): 1817065
HDAC2 activity raw data (signal) ([1]; Conc. 4.57E-09 M, t2): 1855125
HDAC2 activity raw data (signal) ([1]; Conc. 5.08E-10 M, t1): 1872757
HDAC2 activity raw data (signal) ([1]; Conc. 5.08E-10 M, t2): 1875796
6-Selectivity: fold potency for HDAC6 over HDAC2 [2]: 31.25 fold
HDAC6 activity raw data (signal) ([2]; Conc. 1.00E-05 M, t1): 121881
HDAC6 activity raw data (signal) ([2]; Conc. 1.00E-05 M, t2): 130414
HDAC6 activity raw data (signal) ([2]; Conc. 1.11E-06 M, t1): 580651
HDAC6 activity raw data (signal) ([2]; Conc. 1.11E-06 M, t2): 615445
HDAC6 activity raw data (signal) ([2]; Conc. 1.23E-07 M, t1): 1294999
HDAC6 activity raw data (signal) ([2]; Conc. 1.23E-07 M, t2): 1440536
HDAC6 activity raw data (signal) ([2]; Conc. 1.37E-08 M, t1): 1520011
HDAC6 activity raw data (signal) ([2]; Conc. 1.37E-08 M, t2): 1756812
HDAC6 activity raw data (signal) ([2]; Conc. 1.52E-09 M, t1): 1628369
HDAC6 activity raw data (signal) ([2]; Conc. 1.52E-09 M, t2): 1677368
HDAC6 activity raw data (signal) ([2]; Conc. 3.33E-06 M, t1): 268413
HDAC6 activity raw data (signal) ([2]; Conc. 3.33E-06 M, t2): 332099
HDAC6 activity raw data (signal) ([2]; Conc. 3.70E-07 M, t1): 971918
HDAC6 activity raw data (signal) ([2]; Conc. 3.70E-07 M, t2): 981413
HDAC6 activity raw data (signal) ([2]; Conc. 4.12E-08 M, t1): 1459081
HDAC6 activity raw data (signal) ([2]; Conc. 4.12E-08 M, t2): 1648611
HDAC6 activity raw data (signal) ([2]; Conc. 4.57E-09 M, t1): 1570327
HDAC6 activity raw data (signal) ([2]; Conc. 4.57E-09 M, t2): 1728944
HDAC6 activity raw data (signal) ([2]; Conc. 5.08E-10 M, t1): 1620579
HDAC6 activity raw data (signal) ([2]; Conc. 5.08E-10 M, t2): 1733616
